{"source": "paper PMC5584945", "about": "“Evaluation of robenidine analog NCL195 as a novel broad-spectrum antibacterial agent” (PLoS ONE, 2017)", "key": {"S. aureus": {"test_system": "S. aureus", "assay": "MIC, broth micro-dilution (CLSI)", "format": "cell-based, Staphylococcus aureus", "settings": "Staphylococcus aureus; for MIC50 / MIC90: S2 Table isolates"}, "[1]": {"assay": "Microsomal metabolic stability", "format": "in vitro ADME", "settings": "for microsomal CLint at 0.4 μg/ml / half-life at 0.4 μg/ml: liver microsomes, pH 7.4; for microsomal CLint at 0.4 μg/ml: read-out: CLINT; for Predicted EH: hepatic extraction ratio; for Predicted CLblood: microsome-predicted; for half-life at 0.4 μg/ml: 0.4 μg/ml compound, 0.4 mg/ml protein, NADPH", "protocol": "The metabolic stability assay was performed by incubating 0.4 μg/ml of each test compound with human and mouse liver microsomes (Xenotech, Lot# 1210057 and 1310211, respectively) suspended in 0.1 M pH 7.4 phosphate buffer at 37°C and 0.4 mg/ml protein concentration. The metabolic reaction was initiated by the addition of an NADPH-regenerating system (i.e. NADPH is the cofactor required for CYP450-mediated metabolism) and quenched at various time points over a 60 min incubation period by the addition of acetonitrile containing diazepam as internal standard. Control samples (containing no NADPH) were included (and quenched at 2, 30 and 60 min) to monitor for potential degradation in the absence of cofactor. Test compound concentration vs time data were fitted to an exponential decay function to determine the first-order rate constant for substrate depletion. This was used to calculate a degradation half-life (T1/2), in vitro intrinsic clearance (CLINT), microsome-predicted blood clearance (CLblood) and a microsome-predicted hepatic extraction ratio (EH) according to the in vitro half-life method of Obach[53]."}, "[2]": {"test_system": "panel of mammalian cell lines (Caco-2, HEL 299, Hep G2, MDBK, MCF7)", "assay": "In vitro cytotoxicity, WST-1, all cell lines tested", "format": "cell-based", "settings": "lower bound over all the cell lines tested", "description": "(§1) In order to ensure minimal off target mammalian cell cytotoxicity, we assayed NCL812, NCL195 and NCL219 for in vitro cytotoxicity using a panel of adherent mammalian cell lines: Caco-2 (human colorectal adenocarcinoma cell line), HEL 299 (non-cancerous human lung fibroblast cell line), Hep G2 (human hepatocellular carcinoma cell line), MDBK (normal bovine kidney cell line) and MCF7 (human mammary gland adenocarcinoma cell line). Cell lines were maintained in Dulbecco’s Modified Eagle’s Medium (DMEM; […] After 24 h incubation, media was removed, washed once with medium without antibiotics and fresh medium supplemented with 10% (vol/vol) FBS was added. […] Following exposure for 24 h, WST-1 reagent was added to each well at a final concentration of 10%. […] The IC50 value for each compound against each cell line was determined via non-linear regression (three parameters) using GraphPad Prism v6 software. The robustness of assays was confirmed with selected cell lines (Hep G2 and MDBK) seeded onto a 96–well Microwell Nunclon Delta Surface plate (Thermo Scientific Nunc; Cat No: 136101) at 5 × 10^4 cells per well."}, "Hep G2": {"test_system": "Hep G2", "assay": "In vitro cytotoxicity, WST-1", "format": "cell-based", "settings": "Homo sapiens, HepG2; 24 h exposure; read-out: IC50 values ± SEM", "description": "as §1"}, "MDBK": {"test_system": "MDBK", "assay": "Real-time cell viability, RealTime-Glo MT", "format": "cell-based, bovine", "settings": "2 or 8 μg/ml, up to 20 h post-treatment", "description": "as §1"}}, "note": "Like-named read-outs stand apart in the source and are kept apart here."}
{"compound": "C/C(=N\\NC(=N)N/N=C(\\C)c1ccc(C(C)(C)C)cc1)c1ccc(C(C)(C)C)cc1", "note": "[NCL219, (E)-N'-((E)-1-(4-(tert-butyl)phenyl)ethylidene)-2-(1-(4-(tert-butyl)phenyl)ethylidene)hydrazine-1-carboximidhydrazide]", "values": [{"measurement": "MIC", "setting": "S. aureus; ATCC 29213 / MSSA, ATCC29213 MSSA (ST5), 10% FBS, read-out: MIC", "result": 8, "unit": "µg/mL"}, {"measurement": "MIC", "setting": "S. aureus; ATCC 29213 / MSSA, ATCC29213 MSSA (ST5), absence of FBS, read-out: MIC", "result": 16, "unit": "µg/mL"}, {"measurement": "MIC", "setting": "S. aureus; ATCC 49775 / MSSA, ATCC 49775 (MSSA), 10% FBS, read-out: MIC", "result": 4, "unit": "µg/mL"}, {"measurement": "MIC", "setting": "S. aureus; ATCC 49775 / MSSA, ATCC 49775 (MSSA), absence of FBS, read-out: MIC", "result": 32, "unit": "µg/mL"}, {"measurement": "MIC", "setting": "S. aureus; IRISH 1 – HA-EMRSA (ST8), 10% FBS, read-out: MIC", "result": "> 64", "unit": "µg/mL"}, {"measurement": "MIC", "setting": "S. aureus; IRISH 1 – HA-EMRSA (ST8), absence of FBS, read-out: MIC", "result": "> 64", "unit": "µg/mL"}, {"measurement": "MIC", "setting": "S. aureus; IRISH 2 – HA-EMRSA (ST8), 10% FBS, read-out: MIC", "result": 8, "unit": "µg/mL"}, {"measurement": "MIC", "setting": "S. aureus; IRISH 2 – HA-EMRSA (ST8), absence of FBS, read-out: MIC", "result": 32, "unit": "µg/mL"}, {"measurement": "MIC", "setting": "S. aureus; MRSA / USA300, USA 300 - MRSA (ST8), 10% FBS, read-out: MIC", "result": 4, "unit": "µg/mL"}, {"measurement": "MIC", "setting": "S. aureus; MRSA / USA300, USA 300 - MRSA (ST8), absence of FBS, read-out: MIC", "result": "> 64", "unit": "µg/mL"}, {"measurement": "MIC", "setting": "S. aureus; MRSA, AUS2-MRSA (ST239), 10% FBS, read-out: MIC", "result": 8, "unit": "µg/mL"}, {"measurement": "MIC", "setting": "S. aureus; MRSA, AUS2-MRSA (ST239), absence of FBS, read-out: MIC", "result": "> 64", "unit": "µg/mL"}, {"measurement": "MIC", "setting": "S. aureus; MRSA, AUS3-MRSA (ST239), 10% FBS, read-out: MIC", "result": 8, "unit": "µg/mL"}, {"measurement": "MIC", "setting": "S. aureus; MRSA, AUS3-MRSA (ST239), absence of FBS, read-out: MIC", "result": 64, "unit": "µg/mL"}, {"measurement": "MIC", "setting": "S. aureus; MRSA, BENGAL BAY PVL+ – CA-MRSA (ST772), absence of FBS", "result": 16, "unit": "µg/mL"}, {"measurement": "MIC", "setting": "S. aureus; MRSA, Classic–HA-MRSA (ST250), 10% FBS, read-out: MIC", "result": 32, "unit": "µg/mL"}, {"measurement": "MIC", "setting": "S. aureus; MRSA, Classic–HA-MRSA (ST250), absence of FBS, read-out: MIC", "result": 32, "unit": "µg/mL"}, {"measurement": "MIC", "setting": "S. aureus; MRSA, NY JAPAN – HA MRSA (ST5), 10% FBS, read-out: MIC", "result": 4, "unit": "µg/mL"}, {"measurement": "MIC", "setting": "S. aureus; MRSA, NY JAPAN – HA MRSA (ST5), absence of FBS, read-out: MIC", "result": "> 64", "unit": "µg/mL"}, {"measurement": "MIC", "setting": "S. aureus; MRSA, ST398–CA-MRSA-V (ST398), 10% FBS, read-out: MIC", "result": "> 64", "unit": "µg/mL"}, {"measurement": "MIC", "setting": "S. aureus; MRSA, ST398–CA-MRSA-V (ST398), absence of FBS, read-out: MIC", "result": "> 64", "unit": "µg/mL"}, {"measurement": "MIC", "setting": "S. aureus; MRSA, WA2–CA-MRSA (ST78), absence of FBS, read-out: MIC", "result": "> 64", "unit": "µg/mL"}, {"measurement": "MIC", "setting": "S. aureus; MRSA, WA3–CA-MRSA (ST5), absence of FBS, read-out: MIC", "result": "> 64", "unit": "µg/mL"}, {"measurement": "MIC", "setting": "S. aureus; MRSA, WA84–CA-MRSA (ST45), 10% FBS, read-out: MIC", "result": 8, "unit": "µg/mL"}, {"measurement": "MIC", "setting": "S. aureus; MRSA, WA84–CA-MRSA (ST45), absence of FBS, read-out: MIC", "result": "> 64", "unit": "µg/mL"}, {"measurement": "MIC50", "setting": "S. aureus; 10% FBS", "result": 8, "unit": "µg/mL"}, {"measurement": "MIC90", "setting": "S. aureus; 10% FBS", "result": "> 64", "unit": "µg/mL"}, {"measurement": "MIC50", "setting": "S. aureus; absence of FBS", "result": 64, "unit": "µg/mL"}, {"measurement": "MIC90", "setting": "S. aureus; absence of FBS", "result": "> 64", "unit": "µg/mL"}, {"measurement": "MIC", "setting": "S. aureus; TAIWAN PVL+ – CA-cMRSA (ST59), 10% FBS, read-out: MIC", "result": 32, "unit": "µg/mL"}, {"measurement": "MIC", "setting": "S. aureus; TAIWAN PVL+ – CA-cMRSA (ST59), absence of FBS, read-out: MIC", "result": "> 64", "unit": "µg/mL"}, {"measurement": "MIC", "setting": "S. aureus; UK 15 PVL+ – HA-EMRSA (ST22), 10% FBS, read-out: MIC", "result": 4, "unit": "µg/mL"}, {"measurement": "MIC", "setting": "S. aureus; UK 15 PVL+ – HA-EMRSA (ST22), absence of FBS, read-out: MIC", "result": 32, "unit": "µg/mL"}, {"measurement": "MIC", "setting": "S. aureus; UK 15 – HA-EMRSA (ST22), 10% FBS, read-out: MIC", "result": 8, "unit": "µg/mL"}, {"measurement": "MIC", "setting": "S. aureus; UK 15 – HA-EMRSA (ST22), absence of FBS, read-out: MIC", "result": 64, "unit": "µg/mL"}, {"measurement": "MIC", "setting": "S. aureus; UK 16 – HA- EMRSA (ST36), 10% FBS, read-out: MIC", "result": 4, "unit": "µg/mL"}, {"measurement": "MIC", "setting": "S. aureus; UK 16 – HA- EMRSA (ST36), absence of FBS, read-out: MIC", "result": 32, "unit": "µg/mL"}, {"measurement": "MIC", "setting": "S. aureus; UK 17 – HA-EMRSA (ST247), 10% FBS, read-out: MIC", "result": 16, "unit": "µg/mL"}, {"measurement": "MIC", "setting": "S. aureus; UK 17 – HA-EMRSA (ST247), absence of FBS, read-out: MIC", "result": 64, "unit": "µg/mL"}, {"measurement": "microsomal CLint at 0.4 μg/ml", "setting": "[1]; human", "result": 94, "unit": "µL/min/mg"}, {"measurement": "Predicted EH", "setting": "[1]; human", "result": 0.79}, {"measurement": "Predicted CLblood", "setting": "[1]; human", "result": 16, "unit": "mL/min/kg"}, {"measurement": "half-life at 0.4 μg/ml", "setting": "[1]; human", "result": 18, "unit": "min"}, {"measurement": "half-life at 0.4 μg/ml", "setting": "[1]; mouse", "result": 14, "unit": "min"}, {"measurement": "microsomal CLint at 0.4 μg/ml", "setting": "[1]; mouse", "result": 121, "unit": "µL/min/mg"}, {"measurement": "Predicted EH", "setting": "[1]; mouse", "result": 0.72}, {"measurement": "Predicted CLblood", "setting": "[1]; mouse", "result": 87, "unit": "mL/min/kg"}, {"measurement": "IC50", "setting": "[2]", "result": "> 7", "unit": "µg/mL"}, {"measurement": "IC50", "setting": "Hep G2", "result": "7.1 ± 0.1", "unit": "µg/mL"}, {"measurement": "Effect on cell viability (real-time)", "setting": "MDBK", "result": "had a demonstrable effect on viability at 2 μg/ml"}]}
